Source: article PMC3692405, “Disease-associated mutations in CNGB3 promote cytotoxicity in photoreceptor-derived cells” (Molecular Vision, 2013)
Read-outs that look alike come from different tables or passages of the source.

Assays:
[1] = tested on: 661W cells expressing CNGA3 plus CNGB3 T383fsX; conditions: for relative cytotoxicity (LDH release, normalized to untreated vector-only control): 24 h
Protocol: (§1) The mouse photoreceptor 661W cell line used in this study was generously provided by Dr. Al-Ubaidi (University of Oklahoma Health Sciences Center, Oklahoma City, OK). The 661W cells were routinely maintained in Dulbecco’s modified Eagle’s medium (Gibco, Carlsbad, CA), supplemented with 10% fetal bovine serum (Gemini Bioproducts, Sacramento, CA) and 1% penicillin/streptomycin (Gibco), at 37 °C in a humidified incubator with 5% CO2; cells were subcultured every 3–5 days. The 661W cells were transfected with pOPRSVI plasmids encoding human cone CNG channel subunits using Lipofectamine™ 2000 and OptiMEM (Life Technologies, Carlsbad, CA) according to the manufacturer’s protocol for cells in suspension. A reporter plasmid—a green fluorescent protein-expressing vector (pQBI25-fC2, Wako Pure Chemical Industries, Ltd., Japan) using a constitutive CMV promoter—was transfected under the same conditions to assess transfection efficiency. […] In addition, the pOPRSVI plasmid was transfected alone as a negative control. The amounts of each vector were as follows (µg/10 cm^2 culture surface): 2 FLAG- or GFP-CNGA3 plus 2 FLAG-CNGB3 (WT, T383fsX or F525N); 4 GFP; or 4 pOPRSVI.
(§2) For most experiments, the LDH Cytotoxicity Detection Kit (Roche Applied Science) was used according to the manufacturer’s protocol (see also [37]). Briefly, cultured 661W cells were transfected with the desired plasmid constructs as described above and then plated in 96-well tissue culture plates at a density of approximately 8×10^3 cells/well. Forty-eight hours after transfection, cells were treated with various concentrations of CPT-cGMP and/or CPT-cAMP (Sigma-Aldrich) alone or together with L-cis-diltiazem (Enzo Life Sciences, Inc., Farmingdale, NY) in Dulbecco’s modified Eagle’s medium supplemented with 1% fetal bovine serum for 24 h at 37 °C. Following treatment, half of the culture medium was transferred to another 96-well plate and the LDH released into the culture medium was measured to assess the number of damaged/dead cells. Cells in the original plate were then lysed and the total amount of cellular LDH was assessed. The percentage cytotoxicity was then calculated from the ratio of LDH concentration in the medium/cells, and was normalized to the percentage cytotoxicity in untreated cells transfected with control pOPRSVI plasmid only.

[2] = tested on: 661W cells expressing CNGA3 plus CNGB3 F525N; conditions: 24 h
Protocol: as §1, §2

[3] = 10 µM CPT-cAMP combined with 0.1 µM CPT-cGMP

SMILES	relative cytotoxicity (LDH release, normalized to untreated vector-only control) [1, 3]	effect on relative cytotoxicity compared to CPT-cGMP treatment alone ([1]; various concentrations of CPT-cAMP coapplied with 0.1 µM CPT-cGMP)	relative cytotoxicity (LDH release, normalized to untreated vector-only control) ([2]; 1 µM CPT-cAMP coapplied with 0.1 µM CPT-cGMP)	relative cytotoxicity (LDH release, normalized to untreated vector-only control) [2, 3]	relative cytotoxicity (LDH release, normalized to untreated vector-only control) ([1]; 0.1 µM CPT-cGMP)	relative cytotoxicity (LDH release, normalized to untreated vector-only control) ([2]; 0.1 µM CPT-cGMP alone)
Nc1ncnc2c1nc(Sc1ccc(Cl)cc1)n2[C@@H]1O[C@@H]2COP(=O)(O)O[C@H]2[C@H]1O [CPT-cAMP, CPT-adenosine 3′,5′-cyclic monophosphate]	1.30±0.05	unaltered	1.31±0.06	1.67±0.08	–	–
Nc1nc2c(nc(Sc3ccc(Cl)cc3)n2[C@@H]2O[C@@H]3COP(=O)(O)O[C@H]3[C@H]2O)c(=O)[nH]1 [CPT-cGMP, 8-(4-chlorophenylthio) guanosine 3′,5′-cyclic monophosphate]	–	–	–	–	1.26±0.05	1.59±0.05
